# Results as given in ChEMBL document CHEMBL3872259, “Synthesis, characterization, and in vitro SAR evaluation of N,N'-bis(arylmethyl)-C2-alkyl substituted imidazolium salts” (Bioorg Med Chem Lett, 2017).
# Columns and labels:
# [1] = Antiproliferative activity against human HOP62 cells assessed as cell growth at 10 uM measured after 48 hrs by sulforhodamine B assay relative to control; assay type: functional; conditions: HOP-62, 48 h, read-out: Activity
# [2] = Antiproliferative activity against human EKVX cells assessed as cell growth at 10 uM measured after 48 hrs by sulforhodamine B assay relative to control; assay type: functional; conditions: read-out: Activity
# [3] = Antiproliferative activity against human A549/ATCC cells assessed as cell growth at 10 uM measured after 48 hrs by sulforhodamine B assay relative to control; assay type: functional; conditions: A549, 48 h, read-out: Activity
# [4] = Antiproliferative activity against human NCI-H460 cells assessed as reduction in cell viability measured after 72 hrs by MTT assay; assay type: functional, cell-based; conditions: NCI-H460, 72 h; for CC50: read-out: LC50 (the source's name)
# [5] = Antiproliferative activity against human NCI-H1975 cells assessed as reduction in cell viability measured after 72 hrs by MTT assay; assay type: functional, cell-based; conditions: NCI-H1975, 72 h
# [6] = Antiproliferative activity against human HCC827 cells assessed as reduction in cell viability measured after 72 hrs by MTT assay; assay type: functional, cell-based; conditions: HCC827, 72 h
# [7] = Antiproliferative activity against human A549 cells assessed as reduction in cell viability measured after 72 hrs by MTT assay; assay type: functional, cell-based; conditions: A549, 72 h
# [8] = Aqueous solubility of the compound; assay type: physicochemical; conditions: buffer
# [9] = Antiproliferative activity against human HOP92 cells assessed as cell growth at 10 uM measured after 48 hrs by sulforhodamine B assay relative to control; assay type: functional; conditions: HOP-92, 48 h, read-out: Activity
# [10] = Antiproliferative activity against human NCI-H226 cells assessed as cell growth at 10 uM measured after 48 hrs by sulforhodamine B assay relative to control; assay type: functional; conditions: NCI-H226, 48 h, read-out: Activity
# [11] = Antiproliferative activity against human NCI-H23 cells assessed as cell growth at 10 uM measured after 48 hrs by sulforhodamine B assay relative to control; assay type: functional; conditions: NCI-H23, 48 h, read-out: Activity
# [12] = Antiproliferative activity against human NCI-H322M cells assessed as cell growth at 10 uM measured after 48 hrs by sulforhodamine B assay relative to control; assay type: functional; conditions: read-out: Activity
# [13] = Antiproliferative activity against human NCI-H460 cells assessed as cell growth at 10 uM measured after 48 hrs by sulforhodamine B assay relative to control; assay type: functional; conditions: NCI-H460, 48 h, read-out: Activity
# [14] = Antiproliferative activity against human NCI-H522 cells assessed as cell growth at 10 uM measured after 48 hrs by sulforhodamine B assay relative to control; assay type: functional; conditions: NCI-H522, 48 h, read-out: Activity
# [15] = Growth inhibition of human EKVX cells measured after 48 hrs by sulforhodamine B assay; assay type: functional; conditions: for CC50: read-out: LC50 (the source's name)
# [16] = Growth inhibition of human HOP62 cells measured after 48 hrs by sulforhodamine B assay; assay type: functional; conditions: HOP-62, 48 h; for CC50: read-out: LC50 (the source's name)
# [17] = Growth inhibition of human HOP92 cells measured after 48 hrs by sulforhodamine B assay; assay type: functional; conditions: HOP-92, 48 h; for CC50: read-out: LC50 (the source's name)
# [18] = Growth inhibition of human NCI-H226 cells measured after 48 hrs by sulforhodamine B assay; assay type: functional; conditions: NCI-H226, 48 h; for CC50: read-out: LC50 (the source's name)
# [19] = Growth inhibition of human NCI-H23 cells measured after 48 hrs by sulforhodamine B assay; assay type: functional; conditions: NCI-H23, 48 h; for CC50: read-out: LC50 (the source's name)
# [20] = Growth inhibition of human NCI-H322M cells measured after 48 hrs by sulforhodamine B assay; assay type: functional; conditions: for CC50: read-out: LC50 (the source's name)
# [21] = Growth inhibition of human NCI-H522 cells measured after 48 hrs by sulforhodamine B assay; assay type: functional; conditions: NCI-H522, 48 h
structure (smiles),measurement,setting,value
CCCCc1n(Cc2ccc3ccccc3n2)cc[n+]1Cc1ccc2ccccc2n1.[Cl-],growth at 10 µM,[1],25.2%
same,growth at 10 µM,[2],50.9%
same,growth at 10 µM,[3],44.8%
same,GI50,[4],2.17 µM
same,IC50,[4],5 µM
same,TGI,[4],11.6 µM
same,CC50,[4],38.5 µM
same,IC50,[5],< 1 µM
same,IC50,[6],7 µM
same,GI50,[7],4.76 µM
same,IC50,[7],7 µM
same,LC50,[7],47.6 µM
same,TGI,[7],18.5 µM
same,solubility,[8],> 80 mM
same,growth at 10 µM,[9],4.31%
same,growth at 10 µM,[10],26.7%
same,growth at 10 µM,[11],4.77%
same,growth at 10 µM,[12],41.4%
same,growth at 10 µM,[13],16.5%
same,growth at 10 µM,[14],10%
same,GI50,[15],4 µM
same,TGI,[15],22 µM
same,CC50,[15],72.4 µM
same,GI50,[16],2.8 µM
same,TGI,[16],12 µM
same,CC50,[16],39.8 µM
same,GI50,[17],0.339 µM
same,TGI,[17],3.36 µM
same,CC50,[17],20.1 µM
same,GI50,[18],2.37 µM
same,TGI,[18],13.6 µM
same,CC50,[18],60.3 µM
same,GI50,[19],0.48 µM
same,TGI,[19],7.27 µM
same,CC50,[19],43.6 µM
same,GI50,[20],3.57 µM
same,TGI,[20],16.3 µM
same,CC50,[20],42 µM
same,GI50,[21],0.435 µM
same,LC50 (50% lethal concentration),[21],32 µM
same,TGI,[21],4.19 µM
CCc1n(Cc2ccc3ccccc3n2)cc[n+]1Cc1ccc2ccccc2n1.[Cl-],growth at 10 µM,[1],40.9%
same,growth at 10 µM,[2],31.9%
same,growth at 10 µM,[3],57.4%
same,GI50,[4],0.511 µM
same,IC50,[4],6 µM
same,TGI,[4],11.9 µM
same,CC50,[4],45.7 µM
same,IC50,[5],< 1 µM
same,IC50,[6],9 µM
same,GI50,[7],5.27 µM
same,IC50,[7],11 µM
same,LC50,[7],> 100 µM
same,TGI,[7],> 100 µM
same,solubility,[8],> 80 mM
same,growth at 10 µM,[9],-11.8%
same,growth at 10 µM,[10],48.4%
same,growth at 10 µM,[11],16%
same,growth at 10 µM,[12],73.1%
same,growth at 10 µM,[13],34.8%
same,growth at 10 µM,[14],-3.51%
same,GI50,[15],0.343 µM
same,TGI,[15],41.5 µM
same,CC50,[15],> 100 µM
same,GI50,[16],4.66 µM
same,TGI,[16],31.5 µM
same,CC50,[16],> 100 µM
same,GI50,[17],0.0183 µM
same,TGI,[17],0.521 µM
same,CC50,[17],19.7 µM
same,GI50,[18],2.56 µM
same,TGI,[18],30.8 µM
same,CC50,[18],> 100 µM
same,GI50,[19],0.275 µM
same,TGI,[19],8.66 µM
same,CC50,[19],> 100 µM
same,GI50,[20],6.33 µM
same,TGI,[20],41.9 µM
same,CC50,[20],> 100 µM
same,GI50,[21],0.0837 µM
same,LC50 (50% lethal concentration),[21],37.9 µM
same,TGI,[21],1.49 µM
CCCc1n(Cc2ccc3ccccc3n2)cc[n+]1Cc1ccc2ccccc2n1.[Cl-],growth at 10 µM,[1],51.7%
same,growth at 10 µM,[2],58.1%
same,growth at 10 µM,[3],62.8%
same,GI50,[4],2.56 µM
same,IC50,[4],5 µM
same,TGI,[4],11.7 µM
same,CC50,[4],39.8 µM
same,IC50,[5],1 µM
same,IC50,[6],7 µM
same,GI50,[7],6.78 µM
same,IC50,[7],10 µM
same,LC50,[7],> 100 µM
same,TGI,[7],> 100 µM
same,solubility,[8],> 80 mM
same,growth at 10 µM,[9],16%
same,growth at 10 µM,[10],38%
same,growth at 10 µM,[11],13%
same,growth at 10 µM,[12],72.1%
same,growth at 10 µM,[13],34.2%
same,growth at 10 µM,[14],22.8%
same,GI50,[15],12.5 µM
same,TGI,[15],> 100 µM
same,CC50,[15],> 100 µM
same,GI50,[16],4.28 µM
same,TGI,[16],19.4 µM
same,CC50,[16],62.6 µM
same,GI50,[17],0.399 µM
same,TGI,[17],3.23 µM
same,CC50,[17],23.2 µM
same,GI50,[18],3.4 µM
same,TGI,[18],34.8 µM
same,CC50,[18],> 100 µM
same,GI50,[19],0.865 µM
same,TGI,[19],15 µM
same,CC50,[19],> 100 µM
same,GI50,[20],4.68 µM
same,TGI,[20],41.9 µM
same,CC50,[20],> 100 µM
same,GI50,[21],0.601 µM
same,LC50 (50% lethal concentration),[21],27.1 µM
same,TGI,[21],4.3 µM
